Results as given in patent US20260007758A1, “SO[…]-2 RECEPTOR (SST2R) NON-PEPTIDE DRUG CONJUGATES AND USES THEREOF” (Crinetics Pharmaceuticals, Inc., priority 2024, published 2026).

Legend:
Format in all cases: cell-based
[1] = biological target: T1, human somatostatin receptor subtype 2 (Homo sapiens, UniProt P30874); assay: Functional assay for SSTR2 agonists (HTRF cAMP); conditions: CHO-K1 cells stably expressing human SST2; NKH477-stimulated cAMP; 20 min at 37 C; read-out: hSST2 cAMP Avg EC50
T1 construct: expressed in transfected cells
Outline: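 CHO-K1 cells stably expressing human SSTR2 treated with compound (typically 0-10,000 nM final) for 20 min at 37 °C. Lysate cAMP measured by HTRF (665/620 nm ratio), converted via standard curve; EC50 from cAMP vs concentration.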

[2] = test system: NCI-H524 human small cell lung cancer cells; assay: H524 assay: inhibition of cell proliferation (CellTiter Glo); conditions: 2 h treatment, washout, additional 70 h incubation
Outline: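 NCI-H524 cells were exposed for 2 h to NDC in an 11-point two-fold series starting at 1 uM. The drug was then washed out and cells grew a further 70 h. CellTiter Glo luminescence gave % inhibition versus untreated control, and IC50 came from a four-parameter nonlinear regression.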

SST2 = biological target: T2, SST2 (Homo sapiens, UniProt P30874); assay: PathHunter CHO-K1 SST2 Internalization Assay; conditions: PathHunter CHO-K1 SST2 cells; 90 min at 37 C; luminescence; read-out: Internalization EC50
T2 construct: host or cells: PathHunter CHO-K1 SST2 cells
Outline: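 CHO-K1 cells expressing human SST2, 2500 cells/well, grown 48 h, then exposed 90 min at 37 C to 11-point 1:3 NDC dilutions (final top 10 uM). Beta-Glo luminescence after 60 min at room temperature; four-parameter IC50, duplicate mean, background-corrected.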

T2 sequence (P30874 whole entry): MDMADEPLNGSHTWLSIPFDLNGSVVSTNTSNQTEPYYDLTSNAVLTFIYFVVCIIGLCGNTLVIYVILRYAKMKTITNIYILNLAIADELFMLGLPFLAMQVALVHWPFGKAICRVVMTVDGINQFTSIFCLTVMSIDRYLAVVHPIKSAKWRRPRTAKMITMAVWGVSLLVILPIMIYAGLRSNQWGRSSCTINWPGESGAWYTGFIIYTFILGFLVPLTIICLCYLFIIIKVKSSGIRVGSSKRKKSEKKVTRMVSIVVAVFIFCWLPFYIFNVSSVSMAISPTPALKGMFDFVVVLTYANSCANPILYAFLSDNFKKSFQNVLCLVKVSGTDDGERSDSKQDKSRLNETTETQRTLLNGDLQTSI
T1 sequence (P30874 whole entry): as above

SMILES: CC[C@H](C)[C@@H]([C@@H](CC(=O)N1CCC[C@H]1[C@H](OC)[C@@H](C)C(=O)N[C@H](C)[C@@H](O)c1ccccc1)OC)N(C)C(=O)[C@@H](NC(=O)[C@H](C(C)C)N(C)C(=O)OCc1ccc(NC(=O)[C@H](CCCNC(N)=O)NC(=O)[C@@H](NC(=O)c2cc(NCCCCCC(=O)NCCNc3ncc(-c4cc(C)cc(F)c4)c(N4CCC(N)CC4)c3-c3nc4ccc(F)cc4[nH]3)cc(C(=O)NCC(=O)O)c2)C(C)C)cc1)C(C)C [Compound 167]
- EC50 [1]: 0.24 nM
- EC50 [2]: 150 nM
- EC50 (SST2): 13 nM

SMILES: CC[C@H](C)[C@@H]([C@@H](CC(=O)N1CCC[C@H]1[C@H](OC)[C@@H](C)C(=O)N[C@H](C)[C@@H](O)c1ccccc1)OC)N(C)C(=O)[C@@H](NC(=O)[C@H](C(C)C)N(C)C(=O)OCc1ccc(NC(=O)[C@H](C)NC(=O)[C@@H](NC(=O)CCOCCC(=O)NCCNc2ncc(-c3cc(F)cc(OC)c3)c(N3CCC(N)CC3)c2-c2nc3ccc(Cl)cc3[nH]2)C(C)C)c(O[C@@H]2O[C@H](C(=O)O)[C@@H](O)[C@H](O)[C@H]2O)c1)C(C)C [Compound 139]
- EC50 [1]: 0.1 nM
- EC50 [2]: 30 nM
- EC50 (SST2): 4.9 nM

SMILES: CC[C@H](C)[C@@H]([C@@H](CC(=O)N1CCC[C@H]1[C@H](OC)[C@@H](C)C(=O)N[C@H](C)[C@@H](O)c1ccccc1)OC)N(C)C(=O)[C@@H](NC(=O)[C@H](C(C)C)N(C)C(=O)OCc1ccc(NC(=O)[C@H](CCCNC(N)=O)NC(=O)[C@@H](NC(=O)C[C@@H](N)C(=O)NCCOCCC(=O)NCCNc2ncc(-c3cc(C)cc(F)c3)c(N3CCC(N)CC3)c2-c2nc3ccc(Cl)cc3[nH]2)C(C)C)c(O[C@@H]2O[C@H](C(=O)N[C@@H](CCCCNC(=O)CCCCc3ccc(I)cc3)C(=O)O)[C@@H](O)[C@H](O)[C@H]2O)c1)C(C)C [Compound 211]
- EC50 [1]: 0.19 nM
- EC50 [2]: 89 nM
- EC50 (SST2): 3.2 nM

SMILES: CC[C@H](C)[C@@H]([C@@H](CC(=O)N1CCC[C@H]1[C@H](OC)[C@@H](C)C(=O)N[C@H](C)[C@@H](O)c1ccccc1)OC)N(C)C(=O)[C@@H](NC(=O)[C@H](C(C)C)N(C)C(=O)OCc1ccc(NC(=O)[C@H](CCCNC(N)=O)NC(=O)[C@@H](NC(=O)CCOCCC(=O)NCCNc2ncc(-c3cc(C)cc(F)c3)c(N3CCC(N)CC3)c2-c2nc3ccc(Cl)cc3[nH]2)C(C)C)c(O[C@@H]2O[C@H](C(=O)N3CCOCC3)[C@@H](O)[C@H](O)[C@H]2O)c1)C(C)C [Compound 223]
- EC50 [1]: 0.054 nM
- EC50 [2]: 9.2 nM
- EC50 (SST2): 2.8 nM

SMILES: CC[C@H](C)[C@@H]([C@@H](CC(=O)N1CCC[C@H]1[C@H](OC)[C@@H](C)C(=O)N[C@H](C)[C@@H](O)c1ccccc1)OC)N(C)C(=O)[C@@H](NC(=O)[C@H](C(C)C)N(C)C(=O)OCc1ccc(NC(=O)[C@H](CCCNC(N)=O)NC(=O)[C@@H](NC(=O)[C@H](CCC(=O)O)NC(=O)CCOCCOCCOCCOCCC(=O)NCCNc2ncc(-c3cc(C)cc(F)c3)c(N3CCC(N)CC3)c2-c2nc3ccc(Cl)cc3[nH]2)C(C)C)cc1C(=O)O)C(C)C [Compound 3]
- EC50 [1]: 0.19 nM
- EC50 [2]: 680 nM
- EC50 (SST2): 6.8 nM

SMILES: CC[C@H](C)[C@@H]([C@@H](CC(=O)N1CCC[C@H]1[C@H](OC)[C@@H](C)C(=O)N[C@H](C)[C@@H](O)c1ccccc1)OC)N(C)C(=O)[C@@H](NC(=O)[C@H](C(C)C)N(C)C(=O)OCc1ccc(NC(=O)[C@H](CCCNC(N)=O)NC(=O)[C@@H](NC(=O)CCOCCC(=O)NCCNc2ncc(-c3cc(C)cc(F)c3)c(N3CCC(N)CC3)c2-c2nc3ccc(Cl)cc3[nH]2)C(C)C)c(C)c1)C(C)C [Compound 9]
- EC50 [1]: 0.38 nM
- EC50 [2]: 4.3 nM
- EC50 (SST2): 2.5 nM

SMILES: CC[C@H](C)[C@@H]([C@@H](CC(=O)N1CCC[C@H]1[C@H](OC)[C@@H](C)C(=O)N[C@H](C)[C@@H](O)c1ccccc1)OC)N(C)C(=O)[C@@H](NC(=O)[C@H](C(C)C)N(C)C(=O)OCc1ccc(NC(=O)[C@H](C)NC(=O)[C@@H](NC(=O)CCOCCN2CCC(C(=O)NCCNc3ncc(-c4cc(C)cc(F)c4)c(N4CCC(N)CC4)c3-c3nc4ccc(Cl)cc4[nH]3)CC2)C(C)C)c(O[C@@H]2O[C@H](C(=O)O)[C@@H](O)[C@H](O)[C@H]2O)c1)C(C)C [Compound 93]
- EC50 [1]: 0.28 nM
- EC50 [2]: 120 nM
- EC50 (SST2): 33 nM

SMILES: CC[C@H](C)[C@@H]([C@@H](CC(=O)N1CCC[C@H]1[C@H](OC)[C@@H](C)C(=O)N[C@H](C)[C@@H](O)c1ccccc1)OC)N(C)C(=O)[C@@H](NC(=O)[C@H](C(C)C)N(C)C(=O)OCc1ccc(NC(=O)[C@H](C)NC(=O)[C@@H](NC(=O)CCOCCC(=O)NCCNc2ncc(-c3cc(C)cc(F)c3)c(N3CCC(N)CC3)c2-c2nc3cnccc3[nH]2)C(C)C)c(O[C@@H]2O[C@H](C(=O)O)[C@@H](O)[C@H](O)[C@H]2O)c1)C(C)C [Compound 127]
- EC50 [1]: 1.6 nM
- EC50 [2]: 170 nM
- EC50 (SST2): 290 nM

SMILES: CC[C@H](C)[C@@H]([C@@H](CC(=O)N1CCC[C@H]1[C@H](OC)[C@@H](C)C(=O)N[C@H](C)[C@@H](O)c1ccccc1)OC)N(C)C(=O)[C@@H](NC(=O)[C@H](C(C)C)N(C)C(=O)OCc1ccc(NC(=O)[C@H](CCCNC(N)=O)NC(=O)[C@@H](NC(=O)CCOCCOCCOCCOCCC(=O)NCCNc2ncc(-c3cc(C)cc(F)c3)c(N3CCC(N)CC3)c2-c2nc3ccc(Cl)cc3[nH]2)C(C)C)cc1C(=O)O)C(C)C [Compound 4]
- EC50 [1]: 0.11 nM
- EC50 [2]: 740 nM
- EC50 (SST2): 3.8 nM

SMILES: CC[C@H](C)[C@@H]([C@@H](CC(=O)N1CCC[C@H]1[C@H](OC)[C@@H](C)C(=O)N[C@H](C)[C@@H](O)c1ccccc1)OC)N(C)C(=O)[C@@H](NC(=O)[C@H](C(C)C)N(C)C(=O)OCc1ccc(NC(=O)[C@H](CCCNC(N)=O)NC(=O)[C@@H](NC(=O)CCOCCC(=O)NCCNc2ncc(-c3cc(C)cc(F)c3)c(N3CCC(N)CC3)c2-c2nc3ccc(Cl)cc3[nH]2)C(C)C)c(O[C@@H]2O[C@H](C(=O)N(C)C)[C@@H](O)[C@H](O)[C@H]2O)c1)C(C)C [Compound 217]
- EC50 [1]: 0.093 nM
- EC50 [2]: 6.9 nM
- EC50 (SST2): 6 nM

SMILES: CC[C@H](C)[C@@H]([C@@H](CC(=O)N1CCC[C@H]1[C@H](OC)[C@@H](C)C(=O)N[C@H](C)[C@@H](O)c1ccccc1)OC)N(C)C(=O)[C@@H](NC(=O)[C@H](C(C)C)N(C)C(=O)OCc1ccc(NC(=O)[C@H](CCCNC(N)=O)NC(=O)[C@@H](NC(=O)[C@H](NC(=O)CCOCCC(=O)NCCNc2ncc(-c3cc(C)cc(F)c3)c(N3CCC(N)CC3)c2-c2nc3ccc(Cl)cc3[nH]2)c2cnn(C)c2)C(C)C)c(OCC(=O)O)c1)C(C)C [Compound 204]
- EC50 [1]: 0.14 nM
- EC50 [2]: 30 nM
- EC50 (SST2): 9.2 nM

SMILES: CC[C@H](C)[C@@H]([C@@H](CC(=O)N1CCC[C@H]1[C@H](OC)[C@@H](C)C(=O)N[C@H](C)[C@@H](O)c1ccccc1)OC)N(C)C(=O)[C@@H](NC(=O)[C@H](C(C)C)N(C)C(=O)OCc1ccc(NC(=O)[C@H](C)NC(=O)[C@@H](NC(=O)C[C@@H](N)C(=O)NCCOCCOCCC(=O)NCCNc2ncc(-c3cc(C)cc(F)c3)c(N3CCC(N)CC3)c2-c2nc3ccc(Cl)cc3[nH]2)C(C)C)c(O[C@@H]2O[C@H](C(=O)O)[C@@H](O)[C@H](O)[C@H]2O)c1)C(C)C [Compound 136]
- EC50 [1]: 0.29 nM
- EC50 [2]: 540 nM
- EC50 (SST2): 3.5 nM

SMILES: CC[C@H](C)[C@@H]([C@@H](CC(=O)N1CCC[C@H]1[C@H](OC)[C@@H](C)C(=O)N[C@H](C)[C@@H](O)c1ccccc1)OC)N(C)C(=O)[C@@H](NC(=O)[C@H](C(C)C)N(C)C(=O)OCc1ccc(NC(=O)[C@H](CCCNC(N)=O)NC(=O)[C@@H](NC(=O)c2cc(NCCCC(=O)N(C)CC(=O)NCCNc3ncc(-c4cc(C)cc(F)c4)c(N4CCC(N)CC4)c3-c3nc4ccc(Cl)cc4[nH]3)cc(C(=O)NC[C@@H](N)C(=O)O)c2)C(C)C)cc1)C(C)C [Compound 172]
- EC50 [1]: 0.33 nM
- EC50 [2]: 22 nM
- EC50 (SST2): 6.3 nM

SMILES: CC[C@H](C)[C@@H]([C@@H](CC(=O)N1CCC[C@H]1[C@H](OC)[C@@H](C)C(=O)N[C@H](C)[C@@H](O)c1ccccc1)OC)N(C)C(=O)[C@@H](NC(=O)[C@H](C(C)C)N(C)C(=O)OCc1ccc(NC(=O)[C@H](C)NC(=O)[C@@H](NC(=O)CCOCCC(=O)NCCNc2ncc(-c3cc(C)cc(F)c3)c(N3CCC(N)CC3)c2-c2nc3ccc(F)cc3[nH]2)C(C)C)c(O[C@@H]2O[C@H](C(=O)O)[C@@H](O)[C@H](O)[C@H]2O)c1)C(C)C [Compound 138]
- EC50 [1]: 0.072 nM
- EC50 [2]: 20 nM
- EC50 (SST2): 4.4 nM

SMILES: CC[C@H](C)[C@@H]([C@@H](CC(=O)N1CCC[C@H]1[C@H](OC)[C@@H](C)C(=O)N[C@H](C)[C@@H](O)c1ccccc1)OC)N(C)C(=O)[C@@H](NC(=O)[C@H](C(C)C)N(C)C(=O)OCc1ccc(NC(=O)[C@H](CCCNC(N)=O)NC(=O)[C@@H](NC(=O)CCOCCC(=O)NCCNc2ncc(-c3cc(C)cc(F)c3)c(N3CCC(N)CC3)c2-c2nc3ccc(Cl)cc3[nH]2)C(C)C)c(O[C@@H]2O[C@H](C(=O)NCCCCCNC(=O)CCCCc3ccc(I)cc3)[C@@H](O)[C@H](O)[C@H]2O)c1)C(C)C [Compound 225]
- EC50 [1]: 0.26 nM
- EC50 [2]: 18 nM
- EC50 (SST2): 1.9 nM

SMILES: CC[C@H](C)[C@@H]([C@@H](CC(=O)N1CCC[C@H]1[C@H](OC)[C@@H](C)C(=O)N[C@H](C)[C@@H](O)c1ccccc1)OC)N(C)C(=O)[C@@H](NC(=O)[C@H](C(C)C)N(C)C(=O)OCc1ccc(NC(=O)[C@H](CCCNC(N)=O)NC(=O)[C@@H](NC(=O)CCOCCOCCOCCOCCC(=O)NCCCNc2ncc(-c3cc(C)cc(F)c3)c(N3CCC(N)CC3)c2-c2nc3ccc(Cl)cc3[nH]2)C(C)C)cc1)C(C)C [Compound 197]
- EC50 [1]: 0.27 nM
- EC50 [2]: 12 nM
- EC50 (SST2): 6.5 nM
